Measured values: the supplement of paper PMC10307832

Key:
Assay in all cases: relative viability (nuclei count vs DMSO), 5 days (fraction); higher = more cells survive
GSK126 + Tozasertib = compound: CC[C@H](C)N1C=C(C2=C(C=C(C=C21)C3=CN=C(C=C3)N4CCNCC4)C(=O)NCC5=C(C=C(NC5=O)C)C)C [GSK126] + Cc1cc(Nc2cc(N3CCN(C)CC3)nc(Sc3ccc(NC(=O)C4CC4)cc3)n2)n[nH]1 [Tozasertib] (partner 0.1 µM)
Method in brief: (§1)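 Cells from lung cancer lines were seeded into 1536-well plates and, one day later, dosed by pin tool. Treatments were either a single drug or a fixed dose of an anchor drug with five library-drug doses (not always all listed) in √10 steps. After 5 days, nuclei were stained in a one-step fixation (final 0.05% Triton X-100, 1% formaldehyde, 1 ug/ml Hoechst) and counted on 4× images, and relative viability is the treated-to-vehicle nuclei ratio, as the median of duplicate plates.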

MLN4924 + Navitoclax = compound: NS(=O)(=O)OC[C@@H]1C[C@@H](n2ccc3c(N[C@H]4CCc5ccccc54)ncnc32)C[C@@H]1O [MLN4924] + CC1(C)CCC(c2ccc(Cl)cc2)=C(CN2CCN(c3ccc(C(=O)NS(=O)(=O)c4ccc(N[C@H](CCN5CCOCC5)CSc5ccccc5)c(S(=O)(=O)C(F)(F)F)c4)cc3)CC2)C1 [Navitoclax] (partner 0.5 µM)
Method in brief: as §1

GSK126 + Bortezomib = compound: CC[C@H](C)N1C=C(C2=C(C=C(C=C21)C3=CN=C(C=C3)N4CCNCC4)C(=O)NCC5=C(C=C(NC5=O)C)C)C [GSK126] + CC(C)C[C@H](NC(=O)[C@H](Cc1ccccc1)NC(=O)c1cnccn1)B(O)O [Bortezomib] (partner 0.002 µM)
Method in brief: as §1

MLN4924 + Pemetrexed = compound: NS(=O)(=O)OC[C@@H]1C[C@@H](n2ccc3c(N[C@H]4CCc5ccccc54)ncnc32)C[C@@H]1O [MLN4924] + Nc1nc2[nH]cc(CCc3ccc(C(=O)N[C@@H](CCC(=O)O)C(=O)O)cc3)c2c(=O)[nH]1 [Pemetrexed] (partner 0.2 µM)
Method in brief: as §1

Cell Line	relative viability (GSK126 + Tozasertib; first compound 0.08 µM)	relative viability (GSK126 + Tozasertib; first compound 0.253 µM)	relative viability (GSK126 + Tozasertib; first compound 0.8 µM)	relative viability (GSK126 + Tozasertib; first compound 2.53 µM)	relative viability (GSK126 + Tozasertib; first compound 8 µM)	relative viability (MLN4924 + Navitoclax; first compound 0.04 µM)	relative viability (MLN4924 + Navitoclax; first compound 0.1265 µM)	relative viability (MLN4924 + Navitoclax; first compound 0.4 µM)	relative viability (MLN4924 + Navitoclax; first compound 1.265 µM)	relative viability (MLN4924 + Navitoclax; first compound 4 µM)	relative viability (GSK126 + Bortezomib; first compound 0.08 µM)	relative viability (GSK126 + Bortezomib; first compound 0.253 µM)	relative viability (GSK126 + Bortezomib; first compound 0.8 µM)	relative viability (GSK126 + Bortezomib; first compound 2.53 µM)	relative viability (GSK126 + Bortezomib; first compound 8 µM)	relative viability (MLN4924 + Pemetrexed; first compound 0.04 µM)	relative viability (MLN4924 + Pemetrexed; first compound 0.1265 µM)	relative viability (MLN4924 + Pemetrexed; first compound 0.4 µM)	relative viability (MLN4924 + Pemetrexed; first compound 1.265 µM)	relative viability (MLN4924 + Pemetrexed; first compound 4 µM)
CAL-12T	0.324	0.358	0.301	0.189	0.184	1.11	1.11	0.469	0.398	0.204	0.942	1.01	0.929	1.08	1.04	1.06	1.1	0.67	0.636	0.224
SK-LU-1	0.293	0.357	0.366	0.321	0.331	0.737	0.618	0.175	0.127	0.167	1.19	0.95	1.19	1.38	1.05	0.94	0.829	0.26	0.194	0.212
LU99A	0.259	0.268	0.26	0.198	0.21	0.46	0.267	0.243	0.158	0.166	1.13	1.08	1.19	1.15	1.12	0.185	0.175	0.18	0.189	0.129
RERF-LC-KJ	0.562	0.449	0.489	0.485	0.357	0.855	0.569	0.229	0.177	0.209	1.14	1.23	0.938	1.16	1.07	0.523	0.426	0.18	0.208	0.224
NCI-H2126	1	0.835	0.871	0.838	0.812	0.764	0.742	0.621	0.386	0.446	1.09	1.19	1.12	1.08	1.1	0.659	0.676	0.435	0.278	0.281
LXF-289	0.162	0.149	0.218	0.176	0.181	0.848	0.664	0.524	0.174	0.113	1.04	0.996	1	1.01	1.04	0.814	0.77	0.567	0.177	0.116
BEN	0.516	0.388	0.669	–	0.462	0.0403	0.0516	0.045	0.0476	0.0518	1.11	0.742	0.737	0.885	0.846	0.602	0.884	0.455	0.28	0.227
NCI-H1993	0.586	0.639	0.585	0.659	0.649	0.962	0.618	0.584	0.505	0.584	1.23	1.06	1.11	1.04	0.995	0.592	0.471	0.421	0.441	0.382
SW 1573	0.222	0.211	0.159	0.176	0.198	0.887	1.12	0.439	0.0613	0.0532	1.06	1.1	0.989	1.01	1.26	0.899	0.901	0.249	0.0884	0.0765
NCI-H520	0.594	0.426	0.48	0.443	0.352	0.629	0.583	0.298	0.227	0.223	0.745	0.709	0.571	0.522	0.754	0.489	0.368	0.271	0.193	0.172
LCLC-97TM1	0.244	0.223	0.188	0.225	0.176	0.277	0.281	0.139	0.134	0.109	0.563	0.586	0.671	0.719	0.575	0.147	0.18	0.0833	0.0476	0.0536
HCC-827	0.428	0.433	0.453	0.387	0.408	0.925	0.747	0.492	0.275	0.237	1.07	1.09	1.02	1.09	0.965	0.278	0.271	0.266	0.176	0.17
NCI-H1975	0.833	0.69	0.762	0.648	0.48	1.15	1.27	1.14	0.571	0.309	0.509	0.31	0.361	0.392	0.343	0.284	0.331	0.278	0.272	0.209
